Experimental data: patent EP0325279A1, “Dehydrocholecalciferol derivatives” (F. HOFFMANN-LA ROCHE AG, priority 1988, dated 1989)
pEC50, pIC50: −log10 of the molar value. Where “and” joins values, the source holds several entries; their conditions need not be identical. Equal entries are not always repeated.

Columns and labels:
Format in all cases: cell-based
[1] = system: gezüchteten menschlichen Keratinocyten; test: Morphological differentiation of cultured human keratinocytes (cell counts by cell type)
[2] = system: menschlicher promyelocytischer Tumorzellen HL-60; test: Antiproliferative (AP) effect on HL-60 cells; conditions: for pIC50: Homo sapiens, concentration that reduces the cell number by 50%, read-out: ID50 (the source's name)
Text: (§1) Zum Nachweis der Aktivität der Verbindungen der Formel I als Mittel zur Behandlung von neoplastischen Krankheiten wurden die antiproliferativen (AP) und die Differenzierung induzierenden Effekte (DI) der Verbindungen A bis F sowie die Anzahl menschlicher promyelocytischer Tumorzellen HL-60 ermittelt. In Tabelle 6 ist der AP Effekt als prozentuale Reduktion der Anzahl Zellen und als Konzentration ID₅₀, die die Zellenanzahl um 50% reduziert, angegeben. Der DI Effekt ist angegeben als Prozentsatz der differenzierten Zellen und als Konzentration ED₅₀ der Verbindungen, die eine 50%ige Differenzierung der Zellen bewirkt.

[3] = system: menschlicher promyelocytischer Tumorzellen HL-60; test: Differentiation-inducing (DI) effect on HL-60 cells; conditions: for pEC50: Homo sapiens, concentration that causes 50% differentiation of the cells, read-out: ED50 (the source's name)
Text: as §1

[4] = Konzentration 0.01 (head prints x10 M)
[5] = Konzentration 0.1 (head prints x10 M)
[6] = Konzentration 1 (head prints x10 M)
[7] = Konzentration 10 (head prints x10 M)
[8] = Konzentration 100 (head prints x10 M)
[9] = Konzentration 1000 (head prints x10 M)

Row | pIC50 [2] | pEC50 [3] | SMILES | Anzahl Zellen (x10⁴): Basalzellen ([1]; Dosis 10⁻¹⁰ M) | Anzahl Zellen (x10⁴): Gesamtanzahl ([1]; Dosis 10⁻¹⁰ M) | Anzahl Zellen (x10⁴): Plattenepithelzellen ([1]; Dosis 10⁻¹⁰ M) | Anzahl Zellen (x10⁴): Basalzellen ([1]; Dosis 10⁻⁶ M) | Anzahl Zellen (x10⁴): Gesamtanzahl ([1]; Dosis 10⁻⁶ M) | Anzahl Zellen (x10⁴): Plattenepithelzellen ([1]; Dosis 10⁻⁶ M) | Anzahl Zellen (x10⁴): Basalzellen ([1]; Dosis 10⁻⁸ M) | Anzahl Zellen (x10⁴): Gesamtanzahl ([1]; Dosis 10⁻⁸ M) | Anzahl Zellen (x10⁴): Plattenepithelzellen ([1]; Dosis 10⁻⁸ M) | % Reduktion der Anzahl Zellen [2, 5] [%] | % Reduktion der Anzahl Zellen [2, 6] [%] | % Reduktion der Anzahl Zellen [2, 7] [%] | % Reduktion der Anzahl Zellen [2, 8] [%] | Differenzierte Zellen (%) [3, 5] [%] | Differenzierte Zellen (%) [3, 6] [%] | Differenzierte Zellen (%) [3, 7] [%] | Differenzierte Zellen (%) [3, 8] [%] | Anzahl Zellen (x10⁴): verhornte Plattenepithelzellen ([1]; Dosis 10⁻¹⁰ M) [x10⁴] | further results
1 | 8.52 | 8.52 | C=C1/C(=C\C=C2/CCC[C@]3(C)C([C@H](C)C/C=C/C(C)(C)O)=CC[C@@H]23)C[C@@H](O)C[C@@H]1O [Verbindung C, 1,25-Dihydroxy-16,23E-bisdehydrocholecalciferol] | 92±2 x10⁴ | 117±4 x10⁴ | 25±2 x10⁴ | 54±6 x10⁴ | 80±7 x10⁴ | 26±1 x10⁴ | 80±2 x10⁴ | 108±3 x10⁴ | 28±1 x10⁴ | 20 | 81 | 85 | 86 | 19 | 92 | 97 | 99 | 103±6 | Anzahl Zellen (x10⁴): verhornte Plattenepithelzellen ([1]; Dosis 10⁻⁶ M): 153±1 x10⁴; Anzahl Zellen (x10⁴): verhornte Plattenepithelzellen ([1]; Dosis 10⁻⁸ M): 128±3 x10⁴; % Reduktion der Anzahl Zellen [2, 4]: 18%; Differenzierte Zellen (%) [3, 4]: 3%
2 | 6.46 | 6.49 | C=C1CC[C@H](O)C/C1=C/C=C1\CCC[C@]2(C)C([C@H](C)CCCC(C)(C)O)=CC[C@@H]12 [Verbindung B, 25-Hydroxy-16-dehydrocholecalciferol] | 15±5 x10⁴ | 133±6 x10⁴ | 18±1 x10⁴ | 74±3 x10⁴ | 104±4 x10⁴ | 30±1 x10⁴ | 109±2 x10⁴ | 131±4 x10⁴ | 22±2 x10⁴ | 10 | 8 | 14 | 82 | 5 | 4 | 6 | 93 | 25±1 | Anzahl Zellen (x10⁴): verhornte Plattenepithelzellen ([1]; Dosis 10⁻⁶ M): 33±1 x10⁴; Anzahl Zellen (x10⁴): verhornte Plattenepithelzellen ([1]; Dosis 10⁻⁸ M): 29±2 x10⁴; % Reduktion der Anzahl Zellen [2, 9]: 95%; Differenzierte Zellen (%) [3, 9]: 95%
3 | 5.82 | 5.70 | C=C1CC[C@H](O)C/C1=C/C=C1\CCC[C@]2(C)C([C@H](C)C/C=C/C(C)(C)O)=CC[C@@H]12 [Verbindung D, 25-Hydroxy-16,23E-bisdehydrocholecalciferol] | 93±6 x10⁴ | 113±7 x10⁴ | 20±1 x10⁴ | 68±1 x10⁴ | 94±3 x10⁴ | 26±2 x10⁴ | 86±3 x10⁴ | 111±7 x10⁴ | 25±2 x10⁴ | 12 | 12 | 17 | 46 | 1 | 2 | 17 | 31 | 104±10 | Anzahl Zellen (x10⁴): verhornte Plattenepithelzellen ([1]; Dosis 10⁻⁶ M): 144±7 x10⁴; Anzahl Zellen (x10⁴): verhornte Plattenepithelzellen ([1]; Dosis 10⁻⁸ M): 128±5 x10⁴; % Reduktion der Anzahl Zellen [2, 9]: 95%; Differenzierte Zellen (%) [3, 9]: 97%
4 | 6.15 | 6.15 | C=C1CC[C@H](O)C/C1=C/C=C1\CCC[C@]2(C)C([C@H](C)CC#CC(C)(C)O)=CC[C@@H]12 [Verbindung F, 25-Hydroxy-16-dehydro-23-didehydrocholecalciferol] | 81±3 x10⁴ | 103±5 x10⁴ | 22±2 x10⁴ | 55±2 x10⁴ | 84±4 x10⁴ | 29±1 x10⁴ | 67±2 x10⁴ | 97±3 x10⁴ | 29±1 x10⁴ | 13 | 10 | 8 | 58 | 4 | 12 | 21 | 55 | 103±4 | Anzahl Zellen (x10⁴): verhornte Plattenepithelzellen ([1]; Dosis 10⁻⁶ M): 137±7 x10⁴; Anzahl Zellen (x10⁴): verhornte Plattenepithelzellen ([1]; Dosis 10⁻⁸ M): 121±6 x10⁴; % Reduktion der Anzahl Zellen [2, 9]: 95%; Differenzierte Zellen (%) [3, 9]: 91%

Row | SMILES | pIC50 [2] | pEC50 [3] | Anzahl Zellen (x10⁴): Basalzellen ([1]; Dosis 10⁻¹⁰ M) | Anzahl Zellen (x10⁴): Gesamtanzahl ([1]; Dosis 10⁻¹⁰ M) | Anzahl Zellen (x10⁴): Plattenepithelzellen ([1]; Dosis 10⁻¹⁰ M) | Anzahl Zellen (x10⁴): Basalzellen ([1]; Dosis 10⁻⁶ M) | Anzahl Zellen (x10⁴): Gesamtanzahl ([1]; Dosis 10⁻⁶ M) | Anzahl Zellen (x10⁴): Plattenepithelzellen ([1]; Dosis 10⁻⁶ M) | Anzahl Zellen (x10⁴): Basalzellen ([1]; Dosis 10⁻⁸ M) | Anzahl Zellen (x10⁴): Gesamtanzahl ([1]; Dosis 10⁻⁸ M) | Anzahl Zellen (x10⁴): Plattenepithelzellen ([1]; Dosis 10⁻⁸ M) | % Reduktion der Anzahl Zellen [2, 5] [%] | % Reduktion der Anzahl Zellen [2, 6] [%] | % Reduktion der Anzahl Zellen [2, 7] [%] | % Reduktion der Anzahl Zellen [2, 8] [%] | Differenzierte Zellen (%) [3, 5] [%] | Differenzierte Zellen (%) [3, 6] [%] | Differenzierte Zellen (%) [3, 7] [%] | Differenzierte Zellen (%) [3, 8] [%] | Anzahl Zellen (x10⁴): verhornte Plattenepithelzellen ([1]; Dosis 10⁻¹⁰ M) [x10⁴] | further results
5 | C=C1/C(=C\C=C2/CCC[C@]3(C)[C@@H]([C@H](C)CCCC(C)(C)O)CC[C@@H]23)C[C@@H](O)C[C@@H]1O [Verbindung X, 1,25-Dihydroxychalecalciferol, reference compound] | 7.70 | 7.70 | 103±2 x10⁴ and 95±8 x10⁴ and 86±6 x10⁴ | 122±4 x10⁴ and 116±9 x10⁴ and 106±7 x10⁴ | 19±2 x10⁴ and 21±1 x10⁴ and 18±1 x10⁴ | 64±6 x10⁴ and 57±4 x10⁴ and 51±5 x10⁴ | 95±7 x10⁴ and 83±5 x10⁴ and 73±7 x10⁴ | 31±1 x10⁴ and 26±1 x10⁴ and 22±2 x10⁴ | 89±2 x10⁴ and 75±8 x10⁴ and 61±5 x10⁴ | 112±6 x10⁴ and 101±10 x10⁴ and 84±8 x10⁴ | 23±4 x10⁴ and 26±2 x10⁴ and 23±3 x10⁴ | 5 | 16 | 66 | 84 | 11 | 19 | 68 | 98 |  | % Reduktion der Anzahl Zellen [2, 4]: 6%; Differenzierte Zellen (%) [3, 4]: 3%
